# Assay results: ChEMBL document CHEMBL3856276, “Design, Synthesis, and Biological Evaluation of Novel Tetrahydroprotoberberine Derivatives (THPBs) as Selective α1A-Adrenoceptor Antagonists” (J Med Chem, 2016)
# Tests used:
# [1] = species: Homo sapiens; test: Selectivity ratio of IC50 for human full-length N-terminal SNAP-tagged alpha1B adrenoceptor to IC50 for human full-length N-terminal SNAP-tagged alpha1A adrenoceptor
# [2] = species: Homo sapiens; test: Selectivity ratio of IC50 for human full-length N-terminal SNAP-tagged alpha1D adrenoceptor to IC50 for human full-length N-terminal SNAP-tagged alpha1A adrenoceptor
# [3] = target: T1, Alpha-1B adrenergic receptor (Rattus norvegicus, UniProt P15823); test: Antagonist activity at alpha1B adrenoceptor in Sprague-Dawley rat aorta assessed as inhibition of norepinephrine-induced smooth muscle contraction after 20 mins
# T1 sequence (P15823 whole entry): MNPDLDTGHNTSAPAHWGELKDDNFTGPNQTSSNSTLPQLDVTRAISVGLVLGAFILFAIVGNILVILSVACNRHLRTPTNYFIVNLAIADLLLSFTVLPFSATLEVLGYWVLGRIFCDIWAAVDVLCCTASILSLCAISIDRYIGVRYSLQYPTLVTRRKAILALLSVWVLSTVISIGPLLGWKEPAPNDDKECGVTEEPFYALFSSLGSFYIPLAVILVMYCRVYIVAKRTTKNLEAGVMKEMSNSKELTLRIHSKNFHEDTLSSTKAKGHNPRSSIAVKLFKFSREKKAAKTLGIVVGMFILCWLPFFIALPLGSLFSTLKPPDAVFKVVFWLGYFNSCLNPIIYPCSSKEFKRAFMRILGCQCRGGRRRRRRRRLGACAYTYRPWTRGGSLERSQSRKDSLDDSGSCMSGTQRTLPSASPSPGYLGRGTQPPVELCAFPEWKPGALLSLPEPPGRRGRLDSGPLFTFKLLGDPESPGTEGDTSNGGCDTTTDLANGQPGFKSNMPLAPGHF
# [4] = test system: Rattus norvegicus; test: Increase in voided volume in po dosed Sprague-Dawley rat benign prostatic hyperplasia model administered 20 mins followed by distilled watering loading measured for 2 hrs; type: functional; details: read-out: MED
# [5] = test system: Mus musculus; test: Acute toxicity in Kunming mouse assessed as effect on body weight at 500 mg/kg, po administered as single dose measured over 7 days; type: organism-based; details: in vivo, 168 h
# [6] = test system: Mus musculus; test: Acute toxicity in Kunming mouse assessed as effect on fur colour at 500 mg/kg, po administered as single dose measured over 7 days; type: organism-based; details: in vivo, 168 h
# [7] = AUC (0 to t) in rat at 10 mg/kg, iv; type: ADME, organism-based; details: in vivo
# [8] = AUC (0 to infinity) in rat at 10 mg/kg, iv; type: ADME, organism-based; parameters: dose 10 mg/kg, time infinity, route intravenous; details: in vivo
# [9] = Mean residence time in rat at 20 mg/kg, ig via oral gavage; type: ADME, organism-based; details: in vivo
# [10] = Mean residence time in rat at 10 mg/kg, iv; type: ADME, organism-based; details: in vivo
compound,measurement,setting,value
COc1ccc2[nH]c3c(c2c1)C[C@H]1c2cc4c(cc2CCN1C3)OCO4,Ratio IC50,[1],> 781
same,Ratio IC50,[2],19.6
same,IC50,[3],> 1000 nM
same,minimal effective dose,[4],3 mg/kg
same,Activity,[5],Non-Toxic
same,Activity,[6],Non-Toxic
same,AUC(0-t),[7],1870 ng·h/mL
same,AUC(0-inf),[8],1880 ng·h/mL
same,MRT,[9],2.52 h
same,MRT,[10],1.79 h
